Tests used:
[1] = Mass balance study: plasma PK of eravacycline, TP-498 and TP-6208 (LC-MS); type: in vivo, human; settings: plasma, single i.v. dose of [14C]eravacycline
Source text: (§1) (ii) Study design. This was a single-center, open-label study of a single i.v. dose of [^14C]eravacycline to assess the mass balance recovery and PK of eravacycline. The primary objectives were to determine mass balance recovery, determine routes and rates of excretion, provide metabolite profiling and structural identification, and assess the PK of radioactivity in plasma and whole blood. Subjects were screened for inclusion in the study, including a detailed medical history, physical examination, and laboratory evaluations, in the 28 days before dosing. Eligible subjects were admitted to the clinical study unit at approximately 21:00 on the evening prior to study drug administration (day −1) and remained on site until 240 h postdose for collection of urine, feces, and blood samples. After an overnight fast, each subject received 60 mg [^14C]eravacycline containing not more than 3.8 MBq (105 μCi) ^14C as a single i.v. infusion over 60 min.
(vi) Study assessments. PK parameters were determined for total radioactivity in plasma and whole blood. Eravacycline, TP-498, and TP-6208 concentrations in plasma were quantified using a validated assay with internal standards. The following PK parameters were determined: Cmax, Tmax, time from dosing before the first quantifiable concentration in a concentration versus time profile (Tlag), AUC0–t, AUC0–24, AUC0–∞, the percentage of AUC0–∞ extrapolated beyond the time of the last measurable concentration (AUC%extrap), the slope of the apparent terminal phase (lambda-z), the apparent terminal half-life (t1/2), the mean residence time estimated between time zero and infinity (MRT0-∞), the apparent volume of plasma cleared of analyte per unit time (CL), and the volume of distribution of analyte at steady state (Vss).
Plasma concentrations of eravacycline, TP-498, and TP-6208 were measured by liquid chromatography with tandem mass spectrometry (LC-MS). The LLOQ was 5 ng/ml for eravacycline, TP-498, and TP-6208. The calibration ranges for eravacycline, TP-498, and TP-6208 in human urine were 50 to 10,000 ng/ml, 50 to 1,000 ng/ml, and 20 to 1,000 ng/ml, respectively. The calibration ranges for eravacycline, TP-498, and TP-6208 in human plasma were 5 to 500 ng/ml.
(§2) (viii) Study analysis. Descriptive statistics (mean, median, standard deviation [SD], percent coefficient of variation [%CV], minimum, maximum, number, geometric mean, and geometric %CV) were calculated for all concentration data. Pharmacokinetic parameters were calculated using Phoenix WinNonlin v6.3 (Certera USA, Inc.).

[2] = Mass balance study: PK of total radioactivity in whole blood and plasma; type: in vivo, human; settings: for Cmax, total radioactivity: geometric mean (%CV), n = 5
Source text: as §1
(iv) Determination of radioactivity. […] Plasma and whole-blood concentrations of total radioactivity were determined using an analytical method at Quotient Bioresearch (Rushden, Northamptonshire, UK). The lower limit of quantification (LLOQ) for total radioactivity was 11 to 13 ng equivalents (equiv)/ml in plasma and 41 to 46 ng equiv/g in whole blood.
(vi) Study assessments. PK parameters were determined for total radioactivity in plasma and whole blood. Eravacycline, TP-498, and TP-6208 concentrations in plasma were quantified using a validated assay with internal standards. […]
as §2

[3] = set-up: species or system human; settings: in vivo
Protocol: (iii) Study assessments. Blood samples for PK analysis of eravacycline and its metabolites, TP-498, TP-6208, and TP-034, were collected predose and 1, 2, 4, 6, 8, 12, 24, 36, and 48 h after the start of the i.v. infusion on day 1 and day 10 (itraconazole) or day 1 and day 17 (rifampin). Safety assessments included AEs, clinical laboratory safety tests (hematology, serum chemistry, electrolytes, coagulation, urinalysis, and lipid profile), vital signs, physical examinations, and 12-lead ECG.

[4] = human, iv, 60 mg, geometric mean (%CV), n = 2

Compound: CN(C)[C@@H]1C(O)=C(C(N)=O)C(=O)[C@@]2(O)C(O)=C3C(=O)c4c(O)c(NC(=O)CN5CCCC5)cc(F)c4C[C@H]3C[C@@H]12 [eravacycline]
- clearance [1, 4]: 228 ± 13.8 mL/min
- half-life [1, 4]: 18.2 ± 5 h
- MRT inf ([1]; human, iv, 60 mg, geometric mean (%CV), n = 2, read-out: MRT0-∞): 15.9 ± 8.9 h
- CL renal ([1]; human, iv, 60 mg, geometric mean (%CV), n = 5): 41.9 ± 16.6 mL/min
- Tmax ([1]; male, human, iv, 60 mg): 0.55 to 1 h
- AUC(0-inf) ([1]; male, human, iv, 60 mg, geometric mean (%CV), n = 2): 4380 ng·h/mL
- Cmax ([1]; male, human, iv, 60 mg, geometric mean (%CV), n = 5, read-out: Cmax): 1100 ng/mL
- Vd ([1]; male, human, iv, 60 mg, geometric mean (%CV), n = 2, read-out: Vss (volume of distribution)): 217 ± 4.9 L
- time postdose plasma concentrations were quantifiable [1]: approximately 73 h
- Cmax, total radioactivity ([2]; plasma): 893 (18.0) ng equiv/ml
- time postdose total radioactivity remained quantifiable ([2]; plasma, majority of subjects): up to 241 h
- Cmax, total radioactivity ([2]; whole blood): 911 (14.5) ng equiv/ml
- subjects who experienced an AE ([3]; human, iv): 25.0%
- serious AEs or discontinuations for AEs related to study drug [3]: No serious AEs
